Series [1] deals with hepatic gluconeogenesis and mitochondrial oxidation (VPC, VCS). Description: Alanine replacement in 48 hr fasted rats. The series is classed as in vivo, rat. The protocol: (§1) Hepatic fluxes (whole-body glucose turnover, VPC and VCS), liver TCA cycle intermediate concentrations, and plasma metabolites and hormones were measured as described below (Flux Measurements). […] Liver and muscle glycogen concentrations were assessed using amyloglucosidase digestion. Liver TAG content was measured using the method of Bligh and Dyer (Bligh and Dyer, Can. J. Biochem. Physiol. 37, 911-917, 1959): lipids were extracted from livers using 2:1 chloroform:methanol, and the Sekisui triglyceride-SL reagent was used to measure triglyceride content spectrophotometrically. Liver and muscle DAG content and liver acetyl- and malonyl-CoA concentrations were measured by LC-MS/MS as described by Yu and Perry (Yu, et al. J. Biol. Chem. 2002, 277, 50230-50236; Perry, et al., J. Clin. Invest. 2017, 127, 657-669). […] The samples were homogenized in […] ice-cold methanol using a TissueLyser and filtered through a Nanosep filter. LC-MS/MS (AbSCIEX 6500 QTRAP with a Shimadzu ultrafast liquid chromatography system, negative ion mode) was again used to monitor the relevant ion pairs: succinate and [^13C4]succinate, 117/99 and 121/103, respectively; malate and [^13C4]malate, 133/115 and 137/119, respectively; and citrate and [13C6]citrate, 191/173 and 197/179, respectively. […] Hepatic PKCε translocation, gluconeogenic enzyme protein expression, ApoB (antibody from Meridian Life Science, Memphis, Tenn.), and PGC1α (antibody from Santa Cruz Biotechnology, Dallas, Tex.) protein expression were assessed by western blot. Expression of each of these proteins was normalized to GAPDH.

The subject of series [2] is HPA axis, WAT lipolysis, and hepatic gluconeogenesis. Format: in vivo, rat. The protocol:
as §1, with “Blood samples were taken at 14, 16,” for “Hepatic fluxes (whole-body glucose turnover, VPC”, “18 hr of the fast for measurement of substrate/hormone concentrations” for “VCS), liver TCA cycle intermediate concentrations,”, “turnover of each tracer,” for “plasma metabolites and hormones were measured”, “below.” for “below (Flux Measurements).”

The subject of series [3] is HPA axis, WAT lipolysis, endogenous glucose production. Description: Leptin dose-response in streptozotocin-induced type 1 diabetic rats. The following applies: T1D rats. Format: in vivo, rat. The source says: Male Sprague-Dawley rats were ordered from Charles River Laboratories (Wilmington, Mass.) at ˜250 g and were group housed (3 per cage) for 1-2 weeks until they underwent surgery under general isoflurane anesthesia for placement of polyethylene catheters in the common carotid artery (PE50 tubing, Instech Solomon, Plymouth Meeting, Pa.), and the jugular vein (PE90 tubing, Instech), and/or the portal vein (PE50 tubing, Instech), after which they were singly housed until sacrifice. Unless otherwise specified, rats were fed a regular chow diet (Harlan Teklad #2018, Indianapolis, Ind.) throughout, and fasted as described below. […] In order to induce T1D, rats were injected with streptozotocin (65 mg/kg IP, Sigma Aldrich, St. Louis, Mo.) 24 hr prior to the start of a leptin infusion study and were fasted overnight 12 hr after streptozotocin injection.
In order to examine the physiologic impact of varying doses of leptin on glucose, hormones, and lipolysis, rats were infused with stepwise increasing doses of leptin during a continuous infusion of [1,2,3,4,5,6,6-^2H7]glucose, [U-^13C16]palmitate, [1,1,2,3,3-^2H5] glycerol, and [U-^13C4] β-hydroxybutyrate starting at hour 42 of a 48 hr fast. From 42-43.5 hr of the fast rats were infused with tracer only, from hours 43.5-45 they were infused with 20 pmol/(kg-min) leptin, from hours 45-46.5 they were infused with 60 pmol/(kg-min) leptin, and from 46.5-48 hr the infusion rate was 600 pmol/(kg-min). Blood samples were taken at 43.5, 45, 46.5, and 48 hr for measurement of substrate/hormone concentrations and turnover of each tracer, as described below. In the T1D leptin dose response studies, overnight (12 hr) fasted rats were infused with stepwise increasing dose of leptin during the same tracer infusion as described above. From 12-14 hr of the fast rats were infused with tracer only, from 14-16 hr they were infused with 50 pmol/(kg-min) leptin, and from hours 16-18 they were infused with 600 pmol/(kg-min) leptin. Blood samples were taken at 14, 16, and 18 hr of the fast for measurement of substrate/hormone concentrations and turnover of each tracer, as described below.

Another series has as its target T1, ATGL (Rattus norvegicus, UniProt P0C548).
T1 construct: from tissue; host or cells: live rat, in vivo (intraperitoneal dosing)
T1 sequence (P0C548 1-478): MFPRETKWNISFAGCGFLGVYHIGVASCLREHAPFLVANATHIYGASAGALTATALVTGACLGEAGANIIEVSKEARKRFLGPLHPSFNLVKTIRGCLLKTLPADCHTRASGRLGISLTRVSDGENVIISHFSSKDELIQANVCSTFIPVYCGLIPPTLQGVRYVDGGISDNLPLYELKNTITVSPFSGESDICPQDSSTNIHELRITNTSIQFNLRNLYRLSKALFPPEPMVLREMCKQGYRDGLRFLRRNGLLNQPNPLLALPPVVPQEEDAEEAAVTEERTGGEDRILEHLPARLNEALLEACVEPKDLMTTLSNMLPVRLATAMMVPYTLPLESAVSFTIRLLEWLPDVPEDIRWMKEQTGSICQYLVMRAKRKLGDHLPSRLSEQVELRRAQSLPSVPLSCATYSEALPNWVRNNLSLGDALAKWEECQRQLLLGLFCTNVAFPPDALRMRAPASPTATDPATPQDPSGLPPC
Description: ATGL inhibitor atglistatin in 0, 6, 16 and 48 hr fasted rats. Format: in vivo. The protocol:
Liver and muscle glycogen concentrations were assessed using amyloglucosidase digestion. Liver TAG content was measured using the method of Bligh and Dyer (Bligh and Dyer, Can. J. Biochem. Physiol. 37, 911-917, 1959): lipids were extracted from livers using 2:1 chloroform:methanol, and the Sekisui triglyceride-SL reagent was used to measure triglyceride content spectrophotometrically. Liver and muscle DAG content and liver acetyl- and malonyl-CoA concentrations were measured by LC-MS/MS as described by Yu and Perry (Yu, et al. J. Biol. Chem. 2002, 277, 50230-50236; Perry, et al., J. Clin. Invest. 2017, 127, 657-669). […] The samples were homogenized in […] ice-cold methanol using a TissueLyser and filtered through a Nanosep filter. LC-MS/MS (AbSCIEX 6500 QTRAP with a Shimadzu ultrafast liquid chromatography system, negative ion mode) was again used to monitor the relevant ion pairs: succinate and [^13C4]succinate, 117/99 and 121/103, respectively; malate and [^13C4]malate, 133/115 and 137/119, respectively; and citrate and [13C6]citrate, 191/173 and 197/179, respectively. […] Hepatic PKCε translocation, gluconeogenic enzyme protein expression, ApoB (antibody from Meridian Life Science, Memphis, Tenn.), and PGC1α (antibody from Santa Cruz Biotechnology, Dallas, Tex.) protein expression were assessed by western blot. Expression of each of these proteins was normalized to GAPDH.

Series [4] relates to primary mouse hepatocytes. Put plainly: In vitro glucose production, VPC and lipolysis in isolated hepatocytes. Format: cell-based. The conditions noted are these: WT hepatocytes, 100 nM glucagon, 8 hr. The protocol: For in vitro glucose production and lipolysis studies, primary mouse hepatocytes were isolated by the Yale Liver Center. Following removal of cell debris by Percoll density gradient centrifugation, cells were plated on 6-well collagen-I coated dishes (4.0×10^5 cells/well) in 2 ml recovery media (DMEM High Glucose containing 10% FBS, 2% penicillin-streptomycin, 100 nM dexamethasone, 1 nM insulin, and 10 mM HEPES). After incubation for 6 hr at 37° C. and 5% CO2, the attached cells were washed once in 1×PBS and then incubated overnight in 2 ml Low Glucose Culture Media (DMEM Low Glucose supplemented with 10% FBS, 2% penicillin-streptomycin and 10 mM HEPES for glucose production studies) or Serum Free Low Glucose Culture Media (DMEM Low Glucose supplemented with 0.5% fatty acid free BSA, 2% penicillin-streptomycin and 10 mM HEPES for lipolysis assays). […] After incubation for 8 hr at 37° C. and 5% CO2, cell culture media was collected for analysis of glucose, NEFA, and glycerol concentrations as described above. VPC was determined by measuring VPC/VEGP by PINTA as described above using 300 μL of the collected media, and multiplying this ratio by the measured glucose production rate. In a subset of studies, cells were incubated for 8 hr during the glucose production assay in media containing one of the following agents (all dissolved in 0.5% DMSO), or 0.5% DMSO vehicle: 20 μM ET-18-OCH3 (Santa Cruz), 100 μM U-73122 (Sigma), 30 nM thapsigargin (Sigma), 100 nM vasopressin (Sigma) 50 μM 2-APB (R&D Systems), 70 μM caffeine (Sigma), 1 mM malic enzyme inhibitor hydroxymalonate (Sigma). To inhibit PKA, hepatocytes were incubated in H-89 […] hydrate (Sigma, 25 μM) dissolved in media, or media lacking H-89 as a control. In the insulin treatment studies, hepatocytes were incubated in 1 nM insulin with 5% BSA and glucose production media for the duration of the glucose production assay. In the in vitro atglistatin study, hepatocytes were incubated in 10 μM atglistatin in 0.1% EtOH, or 0.1% EtOH vehicle. All values were normalized to total protein content determined from whole-cell lysates by a BCA protein assay (Thermo Fisher Scientific) according to the manufacturer's instructions and expressed as fold change verses vehicle-treated cells.

Setting [5] is: supraphysiologic leptin treatment.
Setting [6] is: supraphysiologic leptin (˜1300 pM).

From patent US11484608B2, “Non-invasive assessment of hepatic mitochondrial metabolism by positional isotopomer NMR tracer analysis (PINTA)” (YALE UNIVERSITY, priority 2017, dated 2022) come the findings set out here.

Where two headings read alike, the source gives them in different places.

On to `C[C@H](N)C(=O)O` [alanine], for which, in series [1] (alanine 45 mmol/(kg-min) 2 hr), the “plasma glucose, insulin, and lactate concentrations” value is “increased”. In series [1] (alanine infusion), the endogenous glucose production entry is on record as “increased”, the “increase in plasma leptin concentrations” value came out at 3 fold, the “liver tricarboxylic acid cycle intermediate concentrations” value was “increased” and the plasma glucagon result is reported as “independent of any change”. Also, in series [1] (alanine infusion), the “pyruvate carboxylase flux (VPC)” value is reported as “increased” and the “rates of hepatic mitochondrial oxidation (VCS)” value is given as “increased”.
Take “leptin: leptin hormone infused at stepwise increasing doses”: in series [2] (48-hr fasted rats), the “plasma FGF-21 concentrations” value is listed as “dose-dependent reduction” and the “plasma growth hormone concentrations” value was “no difference”. Besides, in series [2] (all three infusion rates), the plasma corticosterone result was “suppressed”. The plasma insulin concentrations entry in series [2] (highest dose) is “increased”. In addition, in series [2] (highest infusion rate), the “increase in plasma epinephrine and norepinephrine concentrations” value is recorded as 2- to 3 fold. Moreover, in series [2] (physiologic leptin replacement), the “fatty acid and glycerol turnover” value is given as “suppressed”; the “plasma NEFA, glycerol, β-hydroxybutyrate, and lactate concentrations” value is reported as “suppression”. Also, in series [2] (plasma leptin ˜60 pM), the hepatic glucose production result was “lowered” and the plasma glucose concentrations entry is reported as “lowered”. Also, the “plasma glucose concentrations and hepatic glucose production” value in series [2] (plasma leptin ˜150 pM and ˜1250 pM) was “unable to lower”. Also, the “plasma NEFA, glycerol, β-hydroxybutyrate, and lactate concentrations” value in series [2] (supraphysiologic leptin infusions) is “increases”. Besides, in series [2] (setting [5]), the “fatty acid and glycerol turnover” value was “increased”; the “hepatic acetyl-CoA content and β-hydroxybutyrate turnover” value is “increases”. The HPA axis activity result in series [3] (both doses) was “suppressed”. In series [3] (leptin ˜60 pM), the WAT lipolysis result is “suppression”. Further, the “suppression of WAT lipolysis” value in series [3] (leptin ˜1300 pM) is “abrogated”. Also, in series [3] (physiologic leptin replacement (˜60 pM)), the “plasma glucose concentrations and endogenous glucose production rates” value is given as “marked reduction”. Besides, in series [3] (supraphysiologic leptin), the growth hormone concentrations entry is “without any change”. Also, in series [3] (setting [6]), the “increase in plasma catecholamine concentrations” value stood at 4 fold; the “plasma glucose concentrations and endogenous glucose production” value was “increases”.
Take `CN(C)C(=O)Nc1cccc(-c2ccc(N(C)C)cc2)c1` [atglistatin]: on ATGL (16- and 48-hr fasted rats), the plasma corticosterone concentration entry is listed as “increases”, the plasma glucose concentrations result was “decreased” and the plasma leptin result is reported as “reductions”. For the same compound, the “hepatic acetyl-CoA content, hepatic gluconeogenesis, and plasma glucose and insulin concentrations” value on ATGL (16- to 48-hr fasted rats) was “suppressed”. At ATGL (48-hr fasted rats), the WAT lipolysis entry was “suppression” and the “hepatic acetyl-CoA content” value is listed as “suppression”. In addition, the “plasma lactate, epinephrine, and norepinephrine concentrations and hepatic malonyl-CoA content” value at ATGL (fasted rats) is “unchanged”. Besides, in series [4], the “glucagon-stimulated VPC flux” value is reported as “no effect” and the glucagon-stimulated glucose production entry is “no effect”.
